Test results from patent US4063014A, “4"-O-sulfonyl erythromycin-9-O-oxime derivatives” (Abbott Laboratories, priority 1975, dated 1977).

Tested on: S.aureus (Smith)
Assay: S.aureus (Smith) infection, oral medication
Assay type: in vivo
Design: DOSAGE LEVELS 300 / DOSAGE LEVELS 150 / DOSAGE LEVELS 75 / DOSAGE LEVELS 37.5 / DOSAGE LEVELS 18.75: unit not given here
Conditions: for DOSAGE LEVELS 18.75: dosage level 18.75, infection 10-100 LD50, Rt-IP; for DOSAGE LEVELS 37.5: dosage level 37.5, infection 10-100 LD50, Rt-IP; for DOSAGE LEVELS 75: dosage level 75, infection 10-100 LD50, Rt-IP; for DOSAGE LEVELS 150: dosage level 150, infection 10-100 LD50, Rt-IP; for DOSAGE LEVELS 300: dosage level 300, infection 10-100 LD50, Rt-IP

| Structure (SMILES) | DOSAGE LEVELS 18.75 | DOSAGE LEVELS 37.5 | DOSAGE LEVELS 75 | DOSAGE LEVELS 150 | DOSAGE LEVELS 300 | ED50 (Staphylococcus aureus, infection 10-100 LD50, Rt-IP, read-out: CD50 (the source's name)) |
| --- | --- | --- | --- | --- | --- | --- |
| CC[C@H]1OC(=O)[C@H](C)[C@@H](O[C@H]2C[C@@](C)(OC)[C@@H](OS(=O)(=O)CCNC(=S)Nc3ccccc3)[C@H](C)O2)[C@H](C)[C@@H](O[C@@H]2O[C@H](C)C[C@H](N(C)C)[C@H]2O)[C@](C)(O)C[C@@H](C)C(=NOC)[C@H](C)[C@@H](O)[C@]1(C)O [Example V, 4"-O-[β-(3-Phenylthioureido)-1-Ethyl]sulfonyl Erythromycin-A-9-O-Methyloxime] | 0 | 0 | 0 | 20 | 80 | – |
| CC[C@H]1OC(=O)[C@H](C)[C@@H](O[C@H]2C[C@@](C)(OC)[C@@H](OS(=O)(=O)CCNC(=O)c3ccc([N+](=O)[O-])cc3)[C@H](C)O2)[C@H](C)[C@@H](O[C@@H]2O[C@H](C)C[C@H](N(C)C)[C@H]2O)[C@](C)(O)C[C@@H](C)C(=NOC)[C@H](C)[C@@H](O)[C@]1(C)O [Example XV, 4"-O-[β-(p-Nitrobenzamido)ethyl]Sulfonyl Erythromycin A-9-O-Methyloxime] | 10 | 10 | 0 | 0 | 60 | – |
| CC[C@H]1OC(=O)[C@H](C)[C@@H](O[C@H]2C[C@@](C)(OC)[C@@H](OS(=O)(=O)CCNC(=O)Nc3ccccc3)[C@H](C)O2)[C@H](C)[C@@H](O[C@@H]2O[C@H](C)C[C@H](N(C)C)[C@H]2O)[C@](C)(O)C[C@@H](C)C(=NOC)[C@H](C)[C@@H](O)[C@]1(C)O [VI, 4"-O-[β-(3-Phenylureido)-Ethyl]sulfonyl Erythromycin A-9-O-Methyloxime] | 10 | 20 | 20 | 10 | 50 | – |
| CC[C@H]1OC(=O)[C@H](C)[C@@H](O[C@H]2C[C@@](C)(OC)[C@@H](OS(=O)(=O)CCNC(=O)CNC(=O)OCc3ccccc3)[C@H](C)O2)[C@H](C)[C@@H](O[C@@H]2O[C@H](C)C[C@H](N(C)C)[C@H]2O)[C@](C)(O)C[C@@H](C)C(=NOC)[C@H](C)[C@@H](O)[C@]1(C)O [XII, 4"-O-[β-(N-Carbobenzyloxyglycyl)Amidoethyl]Sulfonyl Erythromycin A-9-O-Methyloxime] | 20 | 0 | 0 | 0 | 30 | > 300 mg/kg |
| CC[C@H]1OC(=O)[C@H](C)[C@@H](O[C@H]2C[C@@](C)(OC)[C@@H](OS(=O)(=O)CCNS(=O)(=O)c3ccc([N+](=O)[O-])cc3)[C@H](C)O2)[C@H](C)[C@@H](O[C@@H]2O[C@H](C)C[C@H](N(C)C)[C@H]2O)[C@](C)(O)C[C@@H](C)C(=NOC)[C@H](C)[C@@H](O)[C@]1(C)O [XVII, 4"-O-[β-(p-Nitrobenzenesulfonamido)Ethyl]Sulfonyl Erythromycin A-9-O-Methyloxime] | 0 | 10 | 10 | 0 | 80 | – |
